Experimental data as given in patent publication US9302999B2, “Substituted triazoles as herbicides” (E. I. DU PONT DE NEMOURS AND COMPANY, priority 2012, dated 2016).

Columns and labels:
Assay type in all cases: in vivo
[1] = test system: winter wheat (Triticum aestivum); assay: Test C pre-/postemergence: winter wheat
How it was run: (§1)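 Visual injury scored 0–100 (100 = complete control) against untreated controls after 13–15 greenhouse days. Surfactant-containing solvent formulations applied either to soil after sowing (loam/sand) or over 1- to 4-leaf plants, 2–18 cm tall.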

[2] = test system: galium (catchweed bedstraw, Galium aparine); assay: Test C pre-/postemergence: galium
How it was run: as §1

[3] = test system: cocklebur (common cocklebur, Xanthium strumarium); assay: Test C pre-/postemergence: cocklebur
How it was run: as §1

corn (Zea mays) = assay: Test C pre-/postemergence: corn
How it was run: as §1

[4] = test system: lambsquarters (Chenopodium album); assay: Test C pre-/postemergence: lambsquarters
How it was run: as §1

[5] = test system: morningglory (Ipomoea coccinea); assay: Test C pre-/postemergence: morningglory
How it was run: as §1

[6] = test system: nightshade (eastern black nightshade, Solanum ptycanthum); assay: Test C pre-/postemergence: nightshade; conditions: Preemergence
How it was run: as §1

[7] = test system: common (oilseed) sunflower (Helianthus annuus); assay: Test C pre-/postemergence: sunflower; conditions: Preemergence
How it was run: as §1

[8] = test system: velvetleaf (Abutilon theophrasti); assay: Test C pre-/postemergence: velvetleaf
How it was run: as §1

[9] = test system: canarygrass (Phalaris minor); assay: Test C postemergence: canarygrass
How it was run: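 Visual ratings of 0 (no effect) to 100 (complete control) were made against controls 13-15 days after a postemergence spray, with plants kept in a greenhouse. Plants were 2-18 cm tall (1- to 4-leaf stage) in Redi-Earth peat/vermiculite medium at treatment.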

[10] = Postemergence, 31 g ai/ha, scale 0 to 100 (0 no effect, 100 complete control)
[11] = Postemergence, 62 g ai/ha, scale 0 to 100 (0 no effect, 100 complete control)
[12] = Postemergence, 125 g ai/ha, scale 0 to 100, 0 no effect, 100 complete control
[13] = Postemergence, 250 g ai/ha, scale 0 to 100
[14] = Preemergence, 31 g ai/ha, scale of 0 to 100, 0 is no effect, 100 is complete control
[15] = Preemergence, 62 g ai/ha, scale of 0 to 100, 0 is no effect, 100 is complete control
[16] = Preemergence, 125 g ai/ha, scale 0 to 100, 0 no effect, 100 complete control
[17] = Preemergence, 250 g ai/ha, scale 0 to 100, 0 no effect, 100 complete control
[18] = Preemergence, 62 g ai/ha, scale 0 to 100, 0 no effect, 100 complete control
[19] = 31 g ai/ha, scale of 0 to 100, 0 is no effect, 100 is complete control
[20] = 62 g ai/ha, scale of 0 to 100, 0 is no effect, 100 is complete control
[21] = 125 g ai/ha, scale 0 to 100, 0 no effect, 100 complete control
[22] = 250 g ai/ha, scale 0 to 100, 0 no effect, 100 complete control
[23] = 31 g ai/ha, scale 0 to 100 (0 no effect, 100 complete control)
[24] = 62 g ai/ha, scale 0 to 100 (0 no effect, 100 complete control)

Compound: Cc1nn(-c2ccc(C(F)(F)F)cn2)nc1Oc1ccnc(C(F)(F)F)c1 [Compound 23]
- Plant response rating, Wheat [1, 10]: 10
- Plant response rating, Wheat [1, 11]: 10
- Plant response rating, Wheat [1, 12]: 15
- Plant response rating, Wheat [1, 13]: 30
- Plant response rating, Wheat [1, 14]: 0
- Plant response rating, Wheat [1, 15]: 0
- Plant response rating, Wheat [1, 16]: 20
- Plant response rating, Wheat [1, 17]: 35
- Plant response rating, Galium [2, 10]: 85
- Plant response rating, Galium [2, 11]: 85
- Plant response rating, Galium [2, 12]: 90
- Plant response rating, Galium [2, 13]: 90
- Plant response rating, Galium [2, 14]: 80
- Plant response rating, Galium [2, 15]: 95
- Plant response rating, Galium [2, 16]: 100
- Plant response rating, Galium [2, 17]: 100
- Plant response rating, Cocklebur [3, 10]: 25
- Plant response rating, Cocklebur [3, 11]: 25
- Plant response rating, Cocklebur [3, 12]: 40
- Plant response rating, Cocklebur [3, 13]: 50
- Plant response rating, Cocklebur [3, 14]: 0
- Plant response rating, Cocklebur [3, 18]: 0
- Plant response rating, Cocklebur [3, 16]: 5
- Plant response rating, Cocklebur [3, 17]: 5
- Plant response rating, Corn (corn (Zea mays); [10]): 10
- Plant response rating, Corn (corn (Zea mays); [11]): 15
- Plant response rating, Corn (corn (Zea mays); [12]): 20
- Plant response rating, Corn (corn (Zea mays); [13]): 30
- Plant response rating, Corn (corn (Zea mays); [14]): 5
- Plant response rating, Corn (corn (Zea mays); [18]): 30
- Plant response rating, Corn (corn (Zea mays); [16]): 70
- Plant response rating, Corn (corn (Zea mays); [17]): 85
- Plant response rating, Lambsquarters [4, 10]: 40
- Plant response rating, Lambsquarters [4, 11]: 40
- Plant response rating, Lambsquarters [4, 12]: 98
- Plant response rating, Lambsquarters [4, 13]: 98
- Plant response rating, Lambsquarters [4, 14]: 95
- Plant response rating, Lambsquarters [4, 15]: 98
- Plant response rating, Lambsquarters [4, 16]: 98
- Plant response rating, Lambsquarters [4, 17]: 100
- Plant response rating, Morningglory [5, 10]: 70
- Plant response rating, Morningglory [5, 11]: 70
- Plant response rating, Morningglory [5, 12]: 90
- Plant response rating, Morningglory [5, 13]: 90
- Plant response rating, Morningglory [5, 14]: 20
- Plant response rating, Morningglory [5, 15]: 20
- Plant response rating, Morningglory [5, 16]: 100
- Plant response rating, Morningglory [5, 17]: 100
- Plant response rating, Nightshade [6, 19]: 50
- Plant response rating, Nightshade [6, 20]: 90
- Plant response rating, Nightshade [6, 21]: 95
- Plant response rating, Nightshade [6, 22]: 98
- Plant response rating, Sunflower [7, 19]: 0
- Plant response rating, Sunflower [7, 20]: 0
- Plant response rating, Sunflower [7, 21]: 0
- Plant response rating, Sunflower [7, 22]: 0
- Plant response rating, Velvetleaf [8, 10]: 15
- Plant response rating, Velvetleaf [8, 11]: 25
- Plant response rating, Velvetleaf [8, 12]: 40
- Plant response rating, Velvetleaf [8, 13]: 50
- Plant response rating, Velvetleaf [8, 14]: 5
- Plant response rating, Velvetleaf [8, 15]: 25
- Plant response rating, Velvetleaf [8, 16]: 80
- Plant response rating, Velvetleaf [8, 17]: 100
- Plant response rating, Canarygrass [9, 23]: 5
- Plant response rating, Canarygrass [9, 24]: 10
- Plant response rating, Canarygrass [9, 21]: 15
- Plant response rating, Canarygrass ([9]; 250 g ai/ha, scale 0 to 100): 15

Compound: Cc1nn(-c2ccc(C(F)(F)F)cn2)nc1Cc1cccc(C(F)(F)F)c1 [Compound 106]
- Plant response rating, Wheat [1, 10]: 10
- Plant response rating, Wheat [1, 11]: 30
- Plant response rating, Wheat [1, 12]: 30
- Plant response rating, Wheat [1, 14]: 0
- Plant response rating, Wheat [1, 15]: 0
- Plant response rating, Wheat [1, 16]: 0
- Plant response rating, Wheat [1, 17]: 5
- Plant response rating, Galium [2, 10]: 65
- Plant response rating, Galium [2, 11]: 65
- Plant response rating, Galium [2, 12]: 80
- Plant response rating, Galium [2, 13]: 80
- Plant response rating, Galium [2, 14]: 5
- Plant response rating, Galium [2, 15]: 10
- Plant response rating, Galium [2, 16]: 60
- Plant response rating, Galium [2, 17]: 90
- Plant response rating, Cocklebur [3, 10]: 35
- Plant response rating, Cocklebur [3, 11]: 35
- Plant response rating, Cocklebur [3, 12]: 40
- Plant response rating, Cocklebur [3, 13]: 55
- Plant response rating, Corn (corn (Zea mays); [10]): 10
- Plant response rating, Corn (corn (Zea mays); [11]): 15
- Plant response rating, Corn (corn (Zea mays); [12]): 15
- Plant response rating, Corn (corn (Zea mays); [13]): 55
- Plant response rating, Corn (corn (Zea mays); [14]): 0
- Plant response rating, Corn (corn (Zea mays); [18]): 0
- Plant response rating, Corn (corn (Zea mays); [16]): 0
- Plant response rating, Corn (corn (Zea mays); [17]): 10
- Plant response rating, Lambsquarters [4, 10]: 80
- Plant response rating, Lambsquarters [4, 11]: 100
- Plant response rating, Lambsquarters [4, 12]: 100
- Plant response rating, Lambsquarters [4, 13]: 100
- Plant response rating, Lambsquarters [4, 14]: 85
- Plant response rating, Lambsquarters [4, 15]: 100
- Plant response rating, Lambsquarters [4, 16]: 100
- Plant response rating, Lambsquarters [4, 17]: 100
- Plant response rating, Morningglory [5, 10]: 0
- Plant response rating, Morningglory [5, 11]: 20
- Plant response rating, Morningglory [5, 12]: 40
- Plant response rating, Morningglory [5, 13]: 40
- Plant response rating, Morningglory [5, 14]: 0
- Plant response rating, Morningglory [5, 15]: 0
- Plant response rating, Morningglory [5, 16]: 10
- Plant response rating, Morningglory [5, 17]: 60
- Plant response rating, Nightshade [6, 19]: 0
- Plant response rating, Nightshade [6, 20]: 75
- Plant response rating, Nightshade [6, 21]: 90
- Plant response rating, Nightshade [6, 22]: 100
- Plant response rating, Sunflower [7, 20]: 0
- Plant response rating, Sunflower [7, 21]: 0
- Plant response rating, Sunflower [7, 22]: 0
- Plant response rating, Velvetleaf [8, 10]: 5
- Plant response rating, Velvetleaf [8, 11]: 45
- Plant response rating, Velvetleaf [8, 12]: 65
- Plant response rating, Velvetleaf [8, 13]: 65
- Plant response rating, Velvetleaf [8, 14]: 0
- Plant response rating, Velvetleaf [8, 15]: 0
- Plant response rating, Velvetleaf [8, 16]: 0
- Plant response rating, Velvetleaf [8, 17]: 10
- Plant response rating, Canarygrass [9, 23]: 35
- Plant response rating, Canarygrass [9, 24]: 50
- Plant response rating, Canarygrass [9, 21]: 70
- Plant response rating, Canarygrass ([9]; 250 g ai/ha, scale 0 to 100): 80
